Measured values reported in PMC2137757 (The Journal of Experimental Medicine, 1964).
Like-named read-outs stand apart in the source and are kept apart here.

Assays:
adrenal cortex [1] = test: Adrenal damage; conditions: for Adrenal damage: feeding; for Pathological findings in adrenals: without hydrocarbons
adrenal cortex [2] = conditions: cited from earlier work; for Protection of adrenal against 7,12-DMBA: single feeding
adrenal cortex [3] = test: Induced protection of adrenal against 7,12-DMBA; type: in vivo, rat; conditions: for Protection of adrenal after repeated doses: 15 mg fed daily for 5 days before 7,12-DMBA
[4] = tested on: menadione reductase (EC 1.6.5.2); test: Induction of menadione reductase in tissues; type: in vivo, rat; conditions: for Induction of menadione reductase in liver: single feeding, 24 hours
[5] = tested on: deoxyribonucleic acid of adrenal; type: in vivo, rat; conditions: Table VII; ethionine 25 mg i.p. at -24 hrs alone
adrenal cortex [6] = conditions: far larger doses than of 7,12-DMBA required; cited from earlier work
[7] = polycyclic aromatic hydrocarbons

**Q.** With `Cc1cccc2ccc3cc4ccccc4c(C)c3c12` [1,12-DMBA] as the molecule, how does the Adrenal damage (adrenal cortex [1]; 30 mg) read?
**A.** adrenal damage did not occur

**Q.** With `Nc1ccc2c(c1)Cc1ccccc1-2` [2-aminofluorene] as the molecule, how does the “Protection of adrenal against 7,12-DMBA” value (adrenal cortex [2]; aromatic amines) read?
**A.** protection of this sort was afforded

**Q.** Which “Prevention of adrenal damage from 7,12-DMBA” value (adrenal cortex [2]; preliminary treatment of rats) does the source give for `CC(C)(C(=O)c1cccnc1)c1cccnc1` [2-methyl-I, 2-b/s(3-pyr-idyl)-1-propanone] here?
**A.** prevented adrenal damage

**Q.** For `Nc1ccc2ccccc2c1` [2-naphthylamine], which “Protection of adrenal against 7,12-DMBA” value (adrenal cortex [2]; aromatic amines) is on record?
**A.** protection of this sort was afforded

**Q.** For `Cc1ccc2cc3c(ccc4cc(C)ccc43)cc2c1` [3,9-Dimethylbenz[alanthracene], which Adrenal damage (adrenal cortex [1]; 30 mg) is on record?
**A.** adrenal damage did not occur

**Q.** With `Cc1c2ccccc2cc2c1cc(F)c1ccccc12` [5-Fluoro-7-methyl BaA] as the molecule, how does the Adrenals with hemorrhage (adrenal cortex [3]; Table III, dose 1 mg fed once day -1, 7,12-DMBA 5 mg i.v. day 0, adrenals day 3) read?
**A.** 0/6

**Q.** For `Cc1cccc2cc3c(cc12)c(C)cc1ccccc13` [6,8-Dimethylbenz[a]anthracene], which Adrenal damage (adrenal cortex [1]; 30 mg) is on record?
**A.** adrenal damage did not occur

**Q.** For `Nc1cc2c3ccccc3ccc2c2ccccc12` [6-Aminochrysene], which “Protection of adrenal against 7,12-DMBA” value (adrenal cortex [2]; aromatic amines) is on record?
**A.** protection of this sort was afforded

**Q.** Which “Protection of adrenal against 7,12-DMBA” value (adrenal cortex [2]; [7]) does the source give for `c1ccc2cc3c(ccc4ccccc43)cc2c1` [Benz[a]anthracene, benz[a]anthracene] here?
**A.** protection of this sort was afforded

**Q.** For `c1ccc2c(c1)cc1ccc3cccc4ccc2c1c34` [Benzo[a]pyrene, benzo[a]pyrene], which “Induction of menadione reductase in liver” value [4] is on record?
**A.** induced synthesis of the enzyme

**Q.** What about the “Protection of adrenal against 7,12-DMBA” value (adrenal cortex [2]; [7]) of the same molecule?
**A.** protection of this sort was afforded

**Q.** Which “Induction of menadione reductase in liver” value [4] does the source give for `c1ccc2c(c1)ccc1c3ccccc3ccc21` [Chrysene] here?
**A.** induced a considerable in- crease

**Q.** With `c1cc2ccc3cccc4ccc(c1)c2c34` [Pyrene] as the molecule, how does the “Induction of menadione reductase in liver” value [4] read?
**A.** failed to induce this enzyme

**Q.** For `c1ccc2cc3ccccc3cc2c1` [anthracene], which “Protection of adrenal against 7,12-DMBA” value (adrenal cortex [2]; [7]) is on record?
**A.** protection of this sort was afforded

**Q.** With `CCC1(CC)C(=O)NC(=O)NC1=O` [barbital] as the molecule, how does the “Protection of adrenal after repeated doses” value (adrenal cortex [3]) read?
**A.** did not induce pro- tection

**Q.** For `CC(C)(O)C(Cl)(Cl)Cl` [chloretone, 1,1,1-tricbloro-2-methyl-2-propanol], which “Rats with protection of adrenals” value (adrenal cortex [3]; 15 mg fed daily for 5 days, group of 20 rats) is on record?
**A.** 7

**Q.** With `CCC1(C2=CCCCC2)C(=O)NC(=O)NC1=O` [cyclobarbital, 5-(1-cycloohexanyl)-5-ethylbarbituric acid] as the molecule, how does the “Protection of adrenal after repeated doses” value (adrenal cortex [3]) read?
**A.** did not induce pro- tection

**Q.** For `CCSCC[C@H](N)C(=O)O` [ethionine], which “Elevation of menadione reductase in liver at 12 hours vs rats without ethionine” value ([4]; 3-MC 2.5 mg i.v. plus ethionine 25 mg i.p.) is on record?
**A.** significantly lower

**Q.** And the “Time elevation of menadione reductase in liver first detected” value ([4]; 3-MC 2.5 mg i.v. plus ethionine 25 mg i.p. just after, Fig. 4)?
**A.** 8 h

**Q.** And the Adrenals at necropsy (adrenal cortex [3]; 3 doses of ethionine 25 mg at +1 minute, +4 hours, +8 hours after 3-MC 10 mg, 7,12-DMBA 5 mg)?
**A.** eliminated the protective effect of 3-MC

**Q.** And the Adrenals at necropsy (adrenal cortex [3]; ethionine 25 mg 4 or 8 hours after 3-MC 2 mg, 7,12-DMBA 5 mg 24 hours later)?
**A.** yel- low adrenals

**Q.** And the “Effect on 7,12-DMBA-produced adrenal apoplexy” value (adrenal cortex [3]; ethionine 25 mg or 50 mg 0.5 hours before 7,12-DMBA 5 mg, no protector)?
**A.** adrenal apoplexy was found at necropsy in all of the rats

**Q.** What about the Adrenals at necropsy (adrenal cortex [3]; single doses of ethionine 25 mg or 50 mg, 1 minute to 1 hour after 3-MC 10 mg, 7,12-DMBA 5 mg) of the same molecule?
**A.** yellow adrenals

**Q.** What about the “Pathological findings in adrenals” value (adrenal cortex [1]; injection of 25 to 75 mg) of the same molecule?
**A.** No pathological findings

**Q.** And the “Tritium content of adrenal” value [5]?
**A.** 0.122 ~clgm

**Q.** What about the “Tritium content of adrenal, per cent of controls” value [5] of the same molecule?
**A.** 92 per cent

**Q.** With `CSCC[C@H](N)C(=O)O` [methionine] as the molecule, how does the “Influence on aromatic protection against 7,12-DMBA” value (adrenal cortex [3]; methionine 50 mg as sole amino acid 1 hour before or 1 hour after 3-MC 2 mg) read?
**A.** no influence on aromatic protection

**Q.** And the “Pathological findings in adrenals” value (adrenal cortex [1]; injection of 50 mg)?
**A.** No pathological findings

**Q.** Which “Adrenal necrosis (character)” value (adrenal cortex [6]) does the source give for `Clc1ccc(C(c2ccccc2Cl)C(Cl)Cl)cc1` (stereo not drawn) [o,p'-DDD, 2,2-bis(2-chlorophenyl,4-chlorophenyl)-l, 1-dichloroethane] here?
**A.** focal and patchy

**Q.** For `c1ccc2c(c1)ccc1ccccc12` [phenanthrene], which “Protection of adrenal against 7,12-DMBA” value (adrenal cortex [2]; [7]) is on record?
**A.** protection of this sort was afforded

**Q.** With `CC12OOC(C)(c3ccccc31)c1c2ccc2ccccc12` (stereo not drawn) [transannular peroxide of 7,12-DMBA] as the molecule, how does the Adrenal protection (adrenal cortex [3]; feeding 10 mg) read?
**A.** complete adre- nal protection

**Q.** And the “Animals with protection of adrenals” value (adrenal cortex [3]; single feeding of 2 mg, group of 5 rats)?
**A.** 3

**Q.** What about the Adrenal damage (adrenal cortex [1]; 50 mg) of the same molecule?
**A.** did not cause injury to the adrenals
